Measured values reported in PubChem BioAssay (NCI).
Values joined by “and” are separate entries in the source; they are usually repeats but may differ in a detail not shown here. Identical values can stand only once.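 All cell lines were grown in 96-well plates and treated with compound for 48 hours. GI50 marks 50% less growth. TGI: total growth inhibition.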

Tests used:
Assay in all cases: growth of human tumour cells (NCI), 48 h
CCRF-CEM leukemia = tested on: CCRF-CEM leukemia
MOLT-4 leukemia = tested on: MOLT-4 leukemia
HOP-62 NSCLC = tested on: HOP-62 NSCLC
LOX IMVI melanoma = tested on: LOX IMVI melanoma
U251 CNS = tested on: U251 CNS
HL-60(TB) leukemia = tested on: HL-60(TB) leukemia
M14 melanoma = tested on: M14 melanoma
EKVX NSCLC = tested on: EKVX NSCLC
RPMI-8226 leukemia = tested on: RPMI-8226 leukemia
NCI/ADR-RES ovarian = tested on: NCI/ADR-RES ovarian

SMILES	TGI (CCRF-CEM leukemia)	TGI (MOLT-4 leukemia)	TGI (HOP-62 NSCLC)	TGI (LOX IMVI melanoma)	TGI (U251 CNS)	TGI (HL-60(TB) leukemia)	TGI (M14 melanoma)	TGI (EKVX NSCLC)	GI50 (CCRF-CEM leukemia)	GI50 (RPMI-8226 leukemia)	TGI (RPMI-8226 leukemia)	GI50 (MOLT-4 leukemia)	GI50 (HOP-62 NSCLC)	GI50 (LOX IMVI melanoma)	GI50 (U251 CNS)	GI50 (NCI/ADR-RES ovarian)	TGI (NCI/ADR-RES ovarian)	GI50 (HL-60(TB) leukemia)	GI50 (M14 melanoma)	GI50 (EKVX NSCLC)
O=C(/C=C/c1ccc(O)cc1)c1cc(Cl)ccc1O	44.8 µM	55.8 µM	> 100 µM	56.2 µM	> 100 µM	45.8 µM	> 100 µM	> 100 µM	–	–	–	–	–	–	–	–	–	–	–	–
O=C1NC(=O)C(c2c[nH]c3ccccc23)=C1c1ccccc1	> 25 µM	> 25 µM	> 25 µM	> 25 µM	> 25 µM	> 25 µM	> 25 µM	–	> 25 µM	> 25 µM	> 25 µM	> 25 µM	> 25 µM	23.3 µM	> 25 µM	> 25 µM	> 25 µM	> 25 µM	> 25 µM	–
ClCCCCOC1CCCCO1 (configuration not stated)	–	> 100 µM	> 100 µM	–	> 100 µM	> 100 µM	> 100 µM	> 100 µM	–	–	–	–	–	–	–	–	–	–	–	–
Nc1nc2ncn(CC(O)COC(=O)c3ccccc3)c2c(=O)[nH]1 (configuration not stated)	> 100 µM	–	> 100 µM	> 100 µM	> 100 µM	> 100 µM	> 100 µM	> 100 µM	–	–	> 100 µM	–	–	–	–	–	–	–	–	–
COC(CC1(OC)OC(=O)C=C1N)OC (configuration not stated)	> 100 µM	> 100 µM	> 100 µM	> 100 µM	> 100 µM	> 100 µM	> 100 µM	> 100 µM	–	–	> 100 µM	–	–	–	–	–	–	–	–	–
N#CC1C(=O)NC(=O)C1=O (configuration not stated)	–	> 100 µM	> 100 µM	> 100 µM	> 100 µM	–	> 100 µM	> 100 µM	–	–	> 100 µM	–	–	–	–	–	–	–	–	–
Cc1cc(N)cc(C)c1-c1c(Br)cc(N)cc1Br	–	–	–	20.7 µM	17.9 µM	–	8.76 µM	> 100 µM	–	3.04 µM	10.4 µM	–	–	6.14 µM	4.54 µM	2.23 µM	5.57 µM	–	2.65 µM	5.65 µM
CCCCC(C(=O)CCC(=O)Nc1ccc(Cl)cc1)C(=O)C(C)C (configuration not stated)	> 100 µM	> 100 µM	> 100 µM	> 100 µM	> 100 µM	> 100 µM	> 100 µM	> 100 µM	–	–	> 100 µM	–	–	–	–	–	–	–	–	–
OCc1ccc(N(Cc2ccc(F)cc2)CC2CCC2)cc1Cl	36 µM	33.4 µM	22.7 µM	29.2 µM	19.6 µM	28.9 µM	31.2 µM	–	15.1 µM	9.28 µM	31.6 µM	13.7 µM	10 µM	14.7 µM	5.43 µM	12.8 µM	28 µM	12.1 µM	15.2 µM	–
CCCCCCCCCCCC(=O)OC(COC(N)=O)COc1ccc(Cl)cc1 (configuration not stated)	35.9 µM	44.3 µM	> 100 µM	55 µM	52.7 µM	33.3 µM	35 µM	92.1 µM	–	–	47 µM	–	–	–	–	–	–	–	–	–
COC(=O)C1=C(\O)C[C@@]2(C)CC[C@@H](C(=O)OC)C2C/C=C\1C(=O)OC (some centres not stated)	> 100 µM	> 100 µM	> 100 µM	> 100 µM	> 100 µM	> 100 µM	> 100 µM	> 100 µM	–	–	> 100 µM	–	–	–	–	–	–	–	–	–
N#Cc1cn(-c2c3ccccc3nc3ccccc23)c(=O)[nH]c1=O	41.7 µM	22.6 µM	–	21.2 µM	71 µM	30.6 µM	28.5 µM	38.1 µM	–	–	75.8 µM	–	–	–	–	–	–	–	–	–
CN1CCc2cc3c4cc2C1Cc1ccc(cc1)Oc1cc(ccc1O)CC1c2c(cc(O)c(c2O4)O3)CCN1C (configuration not stated)	14 µM	10.2 µM	11.2 µM	3.23 µM	3.16 µM	41.6 µM	3.26 µM	25.8 µM	–	–	4.02 µM	–	–	–	–	–	–	–	–	–
CC(C)COC(c1ccc2c(c1)OCO2)C(C)Br (configuration not stated)	–	–	77.9 µM	35.4 µM	93.8 µM	–	50.9 µM	76 µM	–	–	43 µM	–	–	–	–	–	90.2 µM	–	–	–
C#Cc1ccc(-n2c(/C=C/c3ccc4ccccc4c3)nc3ncccc3c2=O)cc1	> 100 µM	> 100 µM	> 100 µM	3.11 µM	> 100 µM	8.83 µM	–	–	1.53 µM	0.451 µM	> 100 µM	2 µM	7.45 µM	0.517 µM	3.69 µM	3.29 µM	> 100 µM	1.66 µM	–	–
COc1cc(/C=C/c2cc(O)c(C/C=C(\C)CC/C=C(\C)CO)c(O)c2)cc2c1O[C@]1(C)CC[C@@H](O)C(C)(C)[C@H]1C2	–	0.0949 µM	> 89 µM	–	8.3 µM and > 72.6 µM	5.69 µM	3.72 µM and 19 µM	98.6 µM	–	–	–	–	7.06 µM and 12.9 µM	–	–	–	> 100 µM	0.511 µM	0.486 µM and 3.68 µM	–
O=C(O)c1cn(C2CC2)c2cc(N3CCN(Cc4ccc5ccccc5c4O)CC3)c(F)cc2c1=O	–	–	9.36 µM	> 100 µM	> 100 µM	> 100 µM	> 100 µM	> 100 µM	–	–	–	–	2.45 µM	3.13 µM	4.87 µM	–	–	> 100 µM	3.18 µM	> 100 µM
CC1CC(c2ccc(Cl)c(Cl)c2)=Nc2ccccc2S1 (configuration not stated)	> 100 µM	> 100 µM	> 100 µM	> 100 µM	> 100 µM	> 100 µM	> 100 µM	> 100 µM	–	–	> 100 µM	–	–	–	–	–	–	–	–	–
COc1ccc(/C=C2/CN(CCC#N)C/C(=C\c3ccc(OC)cc3)C2=O)cc1	> 100 µM	> 100 µM	4.79 µM	4.03 µM	5.1 µM	–	9.6 µM	–	2.46 µM	0.401 µM	9.02 µM	3.69 µM	2.17 µM	1.7 µM	2.1 µM	3.73 µM	> 100 µM	–	3.01 µM	–
Cc1ccc2nc3c(C)cc(=O)cc-3sc2c1	33.1 µM	38.9 µM	58.8 µM	–	> 100 µM	25.2 µM	42.4 µM	66.4 µM	–	–	–	–	–	–	–	–	–	–	–	–
